Test results reported in patent US9101600B2, “Compounds as RORγt modulators and uses thereof” (New York University, priority 2010, dated 2015).

Legend:
Assay type in all cases: cell-based
[1] = molecular target: RORγ/γt (Mus musculus, UniProt P51450, T352K); assay: Small-scale screening, G4BD-RORγt stable S2 cells with transient transfection of two luciferase constructs; design: expressed in transfected cells
Protocol: Promega Dual-Glo system is widely used for HTS as the luciferase substrates. Cell culture medium was reduced to the final volume of 10 μl or less and 10 μl of Dual-glo and 10 μl of Stop-glo luciferase substrates were added in a sequencial manner (Promega). Firefly and Renilla luciferase activity was determined by measuring luminescence signals using an automated 384-well plate reader equipped with multiple stack units (such as the Analyst GT or Envision plate readers).

[2] = test system: human naive cord blood T cells; assay: Human Th17 cell differentiation, naive cord blood T cells (IL-17a and IFN-γ, flow cytometry); settings: six days, IL2, IL23, ILβ, TGFβ
Text: Human Th17 cell differentiation. Compound effects on human RORγt will be tested by treating human cord blood CD4 T cells with select compounds to determine if such compounds alter differentiation into Th17 lineages.

[3] = test system: mouse Th17 cell differentiation; assay: Cytokine induced mouse Th17 cell differentiation (IL17a production, FACS); settings: IL-6 and TGF-β
Protocol: Cytokine induced mouse Th17 cells differentiation. Effects on mouse endogenous RORγt in a relevant physiological setting were determined by testing compounds in the Th17 cell differentiation assay. […] Th1 or regulatory T cell differentiation was used as a counter-screen method to select specific compounds that only affect Th17 cell differentiation without having pleiotrophic effects on general T cell proliferation or cytokine production.
Naive CD4 T cells were cultured with CD3/CD28 stimulatory antibodies in presence of TGFβ and IL6. Compounds were added on Day 1 and cells were analyzed on Day 4. Numbers shown in Table 3 indicate the percentage of mouse Th17 cells.
CD25^−, CD62L^+, and CD44^int-high cells were sorted from B6 mice.

RORγ/γt, sequence (P51450 with tags, fused parts or gaps T352K): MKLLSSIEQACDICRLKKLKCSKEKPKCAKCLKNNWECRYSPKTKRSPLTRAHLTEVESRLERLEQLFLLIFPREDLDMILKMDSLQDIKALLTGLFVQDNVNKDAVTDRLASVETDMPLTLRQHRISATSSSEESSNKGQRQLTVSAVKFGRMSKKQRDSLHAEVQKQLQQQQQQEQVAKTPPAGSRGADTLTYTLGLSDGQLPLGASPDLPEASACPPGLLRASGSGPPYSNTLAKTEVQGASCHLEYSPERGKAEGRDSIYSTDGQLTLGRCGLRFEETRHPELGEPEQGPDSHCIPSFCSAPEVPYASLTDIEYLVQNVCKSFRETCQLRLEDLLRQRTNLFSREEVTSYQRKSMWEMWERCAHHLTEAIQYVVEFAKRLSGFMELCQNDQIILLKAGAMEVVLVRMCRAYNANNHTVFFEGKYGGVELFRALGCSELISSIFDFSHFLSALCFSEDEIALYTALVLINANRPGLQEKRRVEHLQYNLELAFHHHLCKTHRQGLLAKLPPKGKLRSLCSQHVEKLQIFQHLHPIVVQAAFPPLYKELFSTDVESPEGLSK

| SMILES | RORγ/γt antagonist identification (in words) [1] | effect on human CD4 T cell cytokine production (in words) [2] | effect on mouse Th17 cell differentiation / IL-17a in mouse CD4 T cells (in words) [3] |
| --- | --- | --- | --- |
| C[C@H]1O[C@@H](O[C@H]2[C@@H](O)C[C@H](O[C@H]3[C@@H](O)C[C@H](O[C@H]4CC[C@@]5(C)[C@H](CC[C@@H]6[C@@H]5CC[C@]5(C)[C@@H](C7=CC(=O)OC7)CC[C@]65O)C4)O[C@@H]3C)O[C@@H]2C)C[C@H](O)[C@@H]1O [digitoxin] | specific RORγ/γt antagonists |  |  |
| C[C@H]1[C@H](C)CC[C@]2(C(=O)O)CC[C@]3(C)C(=CC[C@@H]4[C@@]5(C)CC[C@H](O)C(C)(C)[C@@H]5CC[C@]43C)[C@H]12 [ursolic acid] |  | RORγt specific inhibitory effects | RORγt specific inhibitory effects |
